“And” between values parts separate entries of the source, which are not always exact repeats. Equal entries are not always repeated. Where two headings read alike, the source gives them in different places. A value given as a limit tells only on which side of the number the result lay.

One test addresses JAK3 (Homo sapiens (Human), UniProt P52333). In words: Z′-Lyte kinase inhibitory activity test. It counts as biochemical. The conditions noted are these: for JAK3 kinase inhibitory activity and selectivity (in words): summary of Table 3, activity maintained at ATP 1 mM. On the procedure: (§1) Test method: Firstly, test compounds were prepared into 10 mM stock solution with DMSO, and continuously diluted into 10 concentrations at a 3-fold gradient for later use. 5X reaction buffer was diluted with deionized water into 1×reaction buffer (50 mM HEPES pH 7.5, 0.01% Brij-35, 10 mM MgCl2, 1 mM EGTA), which was used to prepare a mixture of kinase and peptide substrate, as well as a phosphorylated peptide substrate solution. The kinase concentration was determined based on enzyme titration, and the final concentration of peptide substrate and phosphorylated peptide substrate was 2 μM. 5 μL of mixture substrate of kinase and peptide substrate was added to each well on the 384 well plate. Then 5 nL of the test compound (starting with a final concentration of 10 μM) was added with an Echo520 Sampler. […] An additional 100% phosphorylation well (5 μL phosphorylated peptide substrate solution), a 0% phosphorylated well (5 μL of a mixture of kinase and peptide substrate, without test compounds and ATP), and a 0% inhibitory well (5 μL of a mixture of kinase and peptide substrate and appropriate concentration of ATP) were set as control. Two repeats were set for each concentration. The above reaction system was incubated at 30° C. for 1.5 hours. […] 2.5 μL of the diluted mixture was added to each well and the system was incubated at 30° C. for another 1 hour. […] The substrate phosphorylation rate was obtained by calculating the ratio, and the activity of the kinase and the effect of the inhibitor on the kinase was further calculated. Every experiment was repeated at least three times.

Another test concerns the target JAK1 (Homo sapiens (Human), UniProt P23458). In words: Z′-Lyte kinase inhibitory activity test. It counts as biochemical. The conditions noted are these: ATP concentration Km. On the procedure:
as §1

The next test deals with JAK2 (Homo sapiens (Human), UniProt O60674). In words: Z′-Lyte kinase inhibitory activity test. It is filed as biochemical. On the procedure:
as §1

Another test has as its target TYK2 (Homo sapiens (Human), UniProt P29597). As to the kind of experiment: Z′-Lyte kinase inhibitory activity test. It is filed as biochemical. To be noted: ATP concentration Km. On the procedure:
as §1

Test [1] deals with human acute myeloid leukemia cell line U937. In words: CCK-8 in vitro proliferation inhibition. It counts as cell-based. To be noted: read-out: Inhibitory activity (IC50) on cell proliferation, U937. On the procedure:
(§2) Cell lines: human chronic myeloid leukemia cell line K562, human acute myeloid leukemia cell line U937, human T lymphocyte leukemia cell line HuT78, and human T lymphoblastic lymphoma cell line Jurkat. Cells were purchased from the Chinese Academy of Sciences Stem Cell Bank or ATCC.
(§3) […] were cultured overnight and suspended cells were directly stimulated with drugs. […] Two repeats were set for each concentration, with a final volume of 200 μL. […] The absorbance values at 450 nm and 650 nm were measured using a microplate reader, and the increment Z (A450-A650) was derived. The inhibitory rate of drugs on cell growth was calculated by GraphPad Prism 8.0.0 through the following formula:
(§4) Inhibition rate (%)(ODcontrol−ODdosing)/ODcontrol×100%
(§5) The half inhibitory concentration (IC50) was calculated. Every experiment was repeated at least three times.

The test system of test [2] is human chronic myeloid leukemia cell line K562. In words: CCK-8 in vitro proliferation inhibition. It counts as cell-based. The conditions noted are these: read-out: Inhibitory activity (IC50) on cell proliferation, K562. On the procedure: as §2, §3, §4, §5

JAK3, sequence (P52333 whole entry): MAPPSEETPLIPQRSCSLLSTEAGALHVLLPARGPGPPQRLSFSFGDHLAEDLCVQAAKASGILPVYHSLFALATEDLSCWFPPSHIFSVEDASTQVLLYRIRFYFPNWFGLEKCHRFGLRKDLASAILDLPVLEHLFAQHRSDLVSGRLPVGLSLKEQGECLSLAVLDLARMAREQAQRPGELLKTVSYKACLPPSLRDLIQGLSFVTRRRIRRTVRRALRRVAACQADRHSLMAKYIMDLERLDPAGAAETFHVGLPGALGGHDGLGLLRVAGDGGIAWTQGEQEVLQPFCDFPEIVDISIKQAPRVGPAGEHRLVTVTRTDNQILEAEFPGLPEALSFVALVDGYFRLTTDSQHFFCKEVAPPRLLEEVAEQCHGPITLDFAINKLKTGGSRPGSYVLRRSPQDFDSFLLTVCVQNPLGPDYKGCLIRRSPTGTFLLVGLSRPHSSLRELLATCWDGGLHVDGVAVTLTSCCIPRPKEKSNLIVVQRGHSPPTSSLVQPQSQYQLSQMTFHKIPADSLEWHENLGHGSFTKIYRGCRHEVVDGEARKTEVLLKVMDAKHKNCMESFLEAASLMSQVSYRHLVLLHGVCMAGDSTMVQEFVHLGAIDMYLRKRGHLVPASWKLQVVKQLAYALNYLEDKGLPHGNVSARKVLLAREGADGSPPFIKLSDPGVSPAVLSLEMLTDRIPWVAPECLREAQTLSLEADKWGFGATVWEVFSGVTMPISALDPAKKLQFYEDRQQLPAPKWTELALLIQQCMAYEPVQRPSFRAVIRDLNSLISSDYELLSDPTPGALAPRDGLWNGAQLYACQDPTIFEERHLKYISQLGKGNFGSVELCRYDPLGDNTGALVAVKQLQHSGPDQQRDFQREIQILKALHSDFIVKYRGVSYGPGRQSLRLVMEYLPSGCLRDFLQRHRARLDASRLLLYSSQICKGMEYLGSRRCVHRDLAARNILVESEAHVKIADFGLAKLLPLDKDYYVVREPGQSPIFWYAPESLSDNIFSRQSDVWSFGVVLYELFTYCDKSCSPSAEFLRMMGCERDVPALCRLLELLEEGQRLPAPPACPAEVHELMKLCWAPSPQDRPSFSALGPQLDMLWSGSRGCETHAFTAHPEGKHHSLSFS
TYK2, sequence (P29597 whole entry): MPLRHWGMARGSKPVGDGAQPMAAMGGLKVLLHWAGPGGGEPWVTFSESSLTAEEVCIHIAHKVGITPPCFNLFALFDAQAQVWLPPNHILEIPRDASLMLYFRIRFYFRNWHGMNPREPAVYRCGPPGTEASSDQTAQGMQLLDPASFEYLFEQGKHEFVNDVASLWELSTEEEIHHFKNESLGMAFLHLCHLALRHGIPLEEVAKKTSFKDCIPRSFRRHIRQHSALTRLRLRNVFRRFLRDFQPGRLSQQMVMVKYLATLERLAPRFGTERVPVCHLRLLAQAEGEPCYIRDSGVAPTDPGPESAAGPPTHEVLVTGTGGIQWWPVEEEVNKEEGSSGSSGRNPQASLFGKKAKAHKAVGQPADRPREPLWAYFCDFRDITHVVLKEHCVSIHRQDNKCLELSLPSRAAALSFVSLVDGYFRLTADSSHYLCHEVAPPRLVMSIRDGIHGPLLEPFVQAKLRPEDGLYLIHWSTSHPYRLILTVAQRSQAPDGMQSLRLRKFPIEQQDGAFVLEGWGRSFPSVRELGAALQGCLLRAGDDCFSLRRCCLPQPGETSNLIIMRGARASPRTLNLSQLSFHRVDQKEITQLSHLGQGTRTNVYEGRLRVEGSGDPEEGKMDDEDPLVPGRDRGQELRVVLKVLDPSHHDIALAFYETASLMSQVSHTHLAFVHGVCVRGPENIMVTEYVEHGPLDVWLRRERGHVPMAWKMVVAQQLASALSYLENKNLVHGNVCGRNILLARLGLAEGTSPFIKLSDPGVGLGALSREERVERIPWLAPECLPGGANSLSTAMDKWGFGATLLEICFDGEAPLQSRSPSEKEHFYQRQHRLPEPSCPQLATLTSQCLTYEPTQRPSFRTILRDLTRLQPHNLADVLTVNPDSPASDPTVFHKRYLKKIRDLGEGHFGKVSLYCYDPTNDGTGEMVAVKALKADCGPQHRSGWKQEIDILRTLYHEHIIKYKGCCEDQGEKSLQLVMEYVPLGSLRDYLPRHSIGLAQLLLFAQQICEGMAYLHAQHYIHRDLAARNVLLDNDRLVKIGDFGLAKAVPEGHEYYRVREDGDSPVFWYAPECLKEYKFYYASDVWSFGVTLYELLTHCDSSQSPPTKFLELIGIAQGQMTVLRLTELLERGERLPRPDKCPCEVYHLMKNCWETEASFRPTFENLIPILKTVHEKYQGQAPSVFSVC
JAK2, sequence (O60674 whole entry): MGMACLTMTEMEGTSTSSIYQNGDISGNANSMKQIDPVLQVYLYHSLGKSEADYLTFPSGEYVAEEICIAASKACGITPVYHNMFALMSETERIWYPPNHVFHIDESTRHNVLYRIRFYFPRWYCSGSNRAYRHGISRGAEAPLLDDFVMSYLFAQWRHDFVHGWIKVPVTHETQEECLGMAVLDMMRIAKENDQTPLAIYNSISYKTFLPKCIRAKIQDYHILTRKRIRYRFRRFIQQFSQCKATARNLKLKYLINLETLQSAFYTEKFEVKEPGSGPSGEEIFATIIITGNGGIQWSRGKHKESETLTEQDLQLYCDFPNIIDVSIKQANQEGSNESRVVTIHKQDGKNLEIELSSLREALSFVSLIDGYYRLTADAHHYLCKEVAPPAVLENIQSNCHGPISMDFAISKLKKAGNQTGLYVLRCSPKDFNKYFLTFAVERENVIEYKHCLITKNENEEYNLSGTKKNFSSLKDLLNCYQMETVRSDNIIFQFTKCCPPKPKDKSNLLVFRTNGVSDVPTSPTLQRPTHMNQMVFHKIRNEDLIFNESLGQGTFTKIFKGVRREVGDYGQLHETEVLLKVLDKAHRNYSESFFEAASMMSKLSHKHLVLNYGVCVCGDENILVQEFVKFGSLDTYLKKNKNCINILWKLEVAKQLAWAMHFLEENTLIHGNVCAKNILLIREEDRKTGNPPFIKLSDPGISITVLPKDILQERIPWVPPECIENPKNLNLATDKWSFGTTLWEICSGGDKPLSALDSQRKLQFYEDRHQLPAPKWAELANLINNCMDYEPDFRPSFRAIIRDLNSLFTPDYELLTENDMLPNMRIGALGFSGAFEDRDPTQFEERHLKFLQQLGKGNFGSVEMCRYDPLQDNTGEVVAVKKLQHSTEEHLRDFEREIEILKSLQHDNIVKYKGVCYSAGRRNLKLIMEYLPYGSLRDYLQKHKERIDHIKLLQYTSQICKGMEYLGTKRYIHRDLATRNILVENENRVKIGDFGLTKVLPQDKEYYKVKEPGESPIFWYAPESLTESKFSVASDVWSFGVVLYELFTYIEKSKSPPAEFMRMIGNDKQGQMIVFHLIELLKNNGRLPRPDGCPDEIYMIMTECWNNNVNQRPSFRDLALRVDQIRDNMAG
JAK1, sequence (P23458 whole entry): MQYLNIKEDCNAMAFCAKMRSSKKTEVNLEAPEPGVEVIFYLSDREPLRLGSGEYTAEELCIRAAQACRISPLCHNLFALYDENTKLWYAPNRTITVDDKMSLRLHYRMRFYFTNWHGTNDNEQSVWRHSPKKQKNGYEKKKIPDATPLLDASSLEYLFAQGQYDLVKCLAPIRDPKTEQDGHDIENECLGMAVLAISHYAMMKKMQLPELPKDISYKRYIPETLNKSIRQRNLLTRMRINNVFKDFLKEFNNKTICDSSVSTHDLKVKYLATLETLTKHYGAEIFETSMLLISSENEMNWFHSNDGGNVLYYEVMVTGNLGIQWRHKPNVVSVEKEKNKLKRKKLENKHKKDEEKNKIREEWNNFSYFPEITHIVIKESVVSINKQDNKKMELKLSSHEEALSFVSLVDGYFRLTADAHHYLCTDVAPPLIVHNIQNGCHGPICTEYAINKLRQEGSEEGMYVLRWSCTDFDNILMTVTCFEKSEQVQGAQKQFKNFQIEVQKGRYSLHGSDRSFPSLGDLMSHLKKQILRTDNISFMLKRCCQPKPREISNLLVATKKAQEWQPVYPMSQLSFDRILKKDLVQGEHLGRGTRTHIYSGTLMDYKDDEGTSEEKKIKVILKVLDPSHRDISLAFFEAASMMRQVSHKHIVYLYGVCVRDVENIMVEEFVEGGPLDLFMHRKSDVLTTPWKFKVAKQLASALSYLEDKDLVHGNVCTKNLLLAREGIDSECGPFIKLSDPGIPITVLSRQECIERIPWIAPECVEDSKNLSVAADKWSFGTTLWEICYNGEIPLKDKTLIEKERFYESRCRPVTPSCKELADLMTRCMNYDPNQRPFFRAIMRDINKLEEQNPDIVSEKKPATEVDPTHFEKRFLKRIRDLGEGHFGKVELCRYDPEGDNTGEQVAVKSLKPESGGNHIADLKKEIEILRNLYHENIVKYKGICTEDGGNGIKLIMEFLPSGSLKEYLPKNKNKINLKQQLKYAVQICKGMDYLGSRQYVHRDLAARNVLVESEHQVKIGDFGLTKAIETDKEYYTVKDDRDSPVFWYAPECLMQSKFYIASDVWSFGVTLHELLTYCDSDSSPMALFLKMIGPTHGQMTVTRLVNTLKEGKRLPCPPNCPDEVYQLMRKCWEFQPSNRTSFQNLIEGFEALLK

As for `COc1cc(Nc2ncc(Cl)c(O[C@H]3CO[C@H]4[C@@H]3OC[C@H]4O)n2)ccc1N1CCN(C)CC1` [LS 4-106], on JAK3 (ATP concentration Km), the IC50 was 0.638 µM.
With `C=CC(=O)Nc1cc(Nc2ncc(Cl)c(O[C@@H]3CO[C@H]4[C@@H]3OC[C@H]4OC(C)C)n2)ccc1N(C)CCN(C)C` [LS 7-18], the IC50 at JAK1 (in μM) is greater than 10 µM; at JAK2 (ATP concentration Km) it was 2.66 µM; on JAK3 (ATP concentration 1 mM), 0.0023 µM; on JAK3 (ATP concentration Km) it was 0.0015 µM; on TYK2, 4420 nM; in test [1] (Homo sapiens, U-937, 72 hours), 44 nM. In addition, the “JAK3 kinase inhibitory activity and selectivity (in words)” value at JAK3 is “strong and selective JAK3 kinase inhibitory activity”.
`C=CC(=O)Nc1cc(Nc2ncc(Cl)c(O[C@@H]3CO[C@H]4[C@@H]3OC[C@@H]4F)n2)ccc1N1CCC(N2CCN(C)CC2)CC1` [LS 6-59]: the IC50 came to 7.04 µM at JAK1; 1.08 µM against JAK2; 435 nM against TYK2; 129 nM in test [1] (72 hours); 281 nM in test [2] (72 hours).
`CN1CCN(C2CCN(c3ccc(Nc4ncc(Cl)c(O[C@@H]5CO[C@H]6[C@@H]5OC[C@@H]6O)n4)cc3Cl)CC2)CC1` [LS 4-97] had an IC50 at JAK2 (ATP concentration Km) of 0.406 µM.
As for `CN1CCN(C2CCN(c3ccc(Nc4ncc(Cl)c(O[C@@H]5CO[C@H]6[C@@H]5OC[C@H]6O)n4)c(Cl)c3)CC2)CC1` [LS 4-148], at JAK3 (ATP concentration Km), the IC50 is 6.47 µM.
With `CN1CCN(C2CCN(c3c(Cl)cc(Nc4ncc(Cl)c(O[C@@H]5CO[C@H]6[C@@H]5OC[C@H]6O)n4)cc3Cl)CC2)CC1` [LS 5-16], the IC50 on JAK1 is 0.354 µM; against JAK2 (ATP concentration Km), 0.949 µM; on JAK3 (ATP concentration Km), 0.141 µM.
`C=CC(=O)Nc1cc(Nc2ncc(C)c(O[C@@H]3CO[C@H]4[C@@H]3OC[C@H]4O)n2)ccc1N1CCC(N2CCN(C)CC2)CC1` [LS 5-133, N-(5-((4-(((3R,3aR,6R, 6aR)-6-hydroxyhexahydrofurano[3,2-b]furan-3-yl)oxygen)-5-methylpyrimidin-2-yl)amino)-2-(4-(4-methylpiperazin-1-yl)piperidin-1-yl)phenyl) acrylamide]: the IC50 came to 0.685 µM against JAK1, 0.417 µM at JAK2 (ATP concentration Km), 0.00634 µM against JAK3 (ATP concentration Km) and 313 nM at TYK2.
Take `CN1CCN(c2ccc(Nc3ncc(Cl)c(O[C@@H]4CO[C@H]5[C@@H]4OC[C@H]5O)n3)cc2Cl)CC1` [LS 4-142]: the IC50 against JAK3 (ATP concentration Km) was determined as 0.0495 µM.
For `C=CC(=O)Nc1cc(Nc2ncc(Cl)c(O[C@@H]3CO[C@H]4[C@@H]3OC[C@@H]4F)n2)ccc1N(C)CCN(C)C` [LS 6-77], the IC50 against JAK1 was found to be 33.9 µM; at JAK2 (ATP concentration Km), 2.47 µM; against JAK3 (ATP concentration 1 mM), 0.00155 µM; at JAK3 (ATP concentration Km), 0.00128 µM; at TYK2, 921 nM; in test [1] (Homo sapiens, U-937, 72 hours), 40.7 nM. Also, in test [2] (Homo sapiens, K562, 72 hours), the IC50 was 906 nM. Besides, the “JAK3 kinase inhibitory activity and selectivity (in words)” value at JAK3 is “strong and selective JAK3 kinase inhibitory activity”.
In the case of `C=CC(=O)Nc1cc(Nc2ncc(Cl)c(O[C@@H]3CO[C@H]4[C@@H]3OC[C@H]4F)n2)ccc1N(C)CCN(C)C` [LS 6-88], the IC50 at JAK1 is 87.1 µM; at JAK2, 1.72 µM; on JAK3, 0.00135 µM and 0.00153 µM; against TYK2, 930 nM; in test [1] (72 hours) it was 50.3 nM; in test [2] (72 hours) it was 410 nM. For the same compound, the “JAK3 kinase inhibitory activity and selectivity (in words)” value at JAK3 is “strong and selective JAK3 kinase inhibitory activity”.
Regarding `C=CC(=O)Nc1cc(Nc2ncc(Cl)c(O[C@@H]3CO[C@H]4[C@@H]3OC[C@@H]4F)n2)ccc1N1CCN(CC)CC1` [LS 6-78], the IC50 was 12.6 µM against JAK1; 1.67 µM against JAK2 (ATP concentration Km); 0.00714 µM on JAK3 (ATP concentration 1 mM); 0.00402 µM against JAK3 (ATP concentration Km); 912 nM against TYK2; 146 nM in test [1] (Homo sapiens, U-937, 72 hours). For the same compound, the IC50 in test [2] (Homo sapiens, K562, 72 hours) amounted to 525 nM.
As for `CN1CCN(c2ccc(Nc3ncc(Cl)c(O[C@@H]4CO[C@H]5[C@@H]4OC[C@H]5O)n3)cc2)CC1` [LS 4-144], the IC50 at JAK3 (ATP concentration Km) is 0.0848 µM.
`CN1CCN(C2CCN(c3ccc(Nc4ncc(Cl)c(O[C@H]5CO[C@H]6[C@@H]5OC[C@H]6O)n4)cc3Cl)CC2)CC1` [LS 3-96] displayed an IC50 against JAK2 (ATP concentration Km) of 8.16 µM.
As to `C=CC(=O)Nc1cc(Nc2ncc(Cl)c(O[C@@H]3CO[C@H]4[C@@H]3OC[C@H]4OC)n2)ccc1N1CCN(C)[C@@H](C)C1` [LS 6-49], the IC50 worked out at 4.69 µM against JAK1; 1.1 µM on JAK2 (ATP concentration Km); 0.00292 µM against JAK3 (ATP concentration 1 mM); 0.0017 µM against JAK3 (ATP concentration Km); 1190 nM against TYK2; 79.4 nM in test [1] (Homo sapiens, U-937, 72 hours). The IC50 in test [2] (Homo sapiens, K562, 72 hours) stood at 371 nM. The “JAK3 kinase inhibitory activity and selectivity (in words)” value at JAK3 was “strong and selective JAK3 kinase inhibitory activity”.
Take `COc1cc(N2CCC(N3CCN(C)CC3)CC2)ccc1Nc1ncc(Cl)c(O[C@H]2CO[C@H]3[C@@H]2OC[C@H]3O)n1` [LS 4-100]: the IC50 against JAK3 (ATP concentration Km, in μM) was greater than 10 µM.
Take `C=CC(=O)Nc1cc(Nc2ncc(Cl)c(O[C@@H]3CO[C@@H]4CCO[C@@H]43)n2)ccc1N(C)CCN(C)C` [LS 6-121]: the IC50 at JAK1 is 2.93 µM; at JAK2, 1.06 µM; on JAK3, 0.0014 µM and 0.0016 µM; against TYK2, 278 nM; in test [1] (72 hours) it was 31.3 nM. The “JAK3 kinase inhibitory activity and selectivity (in words)” value on JAK3 was “strong and selective JAK3 kinase inhibitory activity”.
Turning to `C=CC(=O)Nc1cc(Nc2ncc(Cl)c(O[C@@H]3CO[C@H]4[C@@H]3OC[C@H]4OC)n2)ccc1N1CCOCC1` [LS 6-48], the IC50 turned out to be 2.75 µM against JAK1; 1.13 µM against JAK2 (ATP concentration Km); 0.0261 µM at JAK3 (ATP concentration 1 mM); 0.00387 µM against JAK3 (ATP concentration Km); 637 nM on TYK2; 403 nM in test [1] (Homo sapiens, U-937, 72 hours). In addition, the IC50 in test [2] (Homo sapiens, K562, 72 hours) stood at 1550 nM.
For the compound `C=CC(=O)Nc1cc(Nc2ncc(Cl)c(O[C@@H]3CO[C@H]4[C@@H]3OCC4(F)F)n2)ccc1N(C)CCN(C)C` [LS 6-105], the IC50 on JAK1 is 4.22 µM; on JAK2 it was 0.589 µM; against JAK3 it was 0.00113 µM and 0.00132 µM; at TYK2, 272 nM; in test [1] (72 hours) it was 33.8 nM; in test [2] (72 hours), 345 nM. The “JAK3 kinase inhibitory activity and selectivity (in words)” value at JAK3 was “strong and selective JAK3 kinase inhibitory activity”.
For `N#CC1(c2ccc(Nc3ncc(Cl)c(O[C@@H]4CO[C@H]5[C@@H]4OC[C@H]5O)n3)cc2)CCCC1` [LS 5-58], the IC50 against JAK1 was found to be 0.161 µM; against JAK2 (ATP concentration Km), 0.67 µM; on JAK3 (ATP concentration Km) it was 0.12 µM.
In the case of `Cc1cc(Nc2ncc(Cl)c(O[C@@H]3CO[C@H]4[C@@H]3OC[C@H]4O)n2)cnc1N1CCC(N2CCN(C)CC2)CC1` [LS 4-150], the IC50 against JAK3 (ATP concentration Km) worked out at 0.084 µM.
As for `C=CC(=O)Nc1cc(Nc2ncc(Cl)c(O[C@@H]3CO[C@H]4[C@@H]3OC[C@H]4OCC)n2)ccc1N(C)CCN(C)C` [LS 7-13], the IC50 on JAK1 was determined as 8.6 µM; on JAK2 (ATP concentration Km), 1.89 µM; at JAK3 (ATP concentration 1 mM), 0.0019 µM; against JAK3 (ATP concentration Km), 0.0013 µM; against TYK2 it was 1660 nM; in test [1] (Homo sapiens, U-937, 72 hours), 29.9 nM. The “JAK3 kinase inhibitory activity and selectivity (in words)” value on JAK3 was “strong and selective JAK3 kinase inhibitory activity”.
For `CCN1CCN(Cc2ccc(Nc3ncc(Cl)c(O[C@@H]4CO[C@H]5[C@@H]4OC[C@H]5O)n3)nc2)CC1` [LS 5-54], the IC50 is greater than 10 µM at JAK1 (in μM); greater than 10 µM at JAK2 (ATP concentration Km, in μM); 5.75 µM on JAK3 (ATP concentration Km).
Turning to `C=CC(=O)Nc1cc(Nc2ncc(Cl)c(O[C@@H]3CO[C@H]4[C@@H]3OC[C@H]4F)n2)ccc1N1CCN(CC)CC1` [LS 6-89], the IC50 at JAK1 is 15.6 µM; against JAK2 (ATP concentration Km), 1.71 µM; against JAK3 (ATP concentration 1 mM), 0.00654 µM; at JAK3 (ATP concentration Km) it was 0.00426 µM; on TYK2, 805 nM; in test [1] (Homo sapiens, U-937, 72 hours), 171 nM. Moreover, in test [2] (Homo sapiens, K562, 72 hours), the IC50 is 620 nM.

These data come from patent US20230348487A1, “2-AMINOPYRIMIDINE COMPOUND AND PHARMACEUTICAL COMPOSITION THEREOF AND APPLICATION THEREOF” (GUANGZHOU SALUSTIER BIOSCIENCES CO., LTD., priority 2021, published 2023).
